Legend:
CD8+ T cells [1] = assay: CD8+ T cell activation (mLN flow cytometry) and lung histology in IV metastasis model; type: in vivo, BALB/c mice; settings: day 21, vs vehicle
Description: FIGS. 23A-23G. Systemic administration of […] induces tumor-specific CD8^+ T cells. (A) Protocol of IV metastasis model. (B) BALB/c mice (n=B-15/group) were i.v. injected with 4T1 cells (2×10^4) on day 0.1V270 (2, 20, or 200 μg/injection) was i.p. administered on days −1, 7, 10, and 14. The numbers of lung nodules were counted on day 21. (C) 200 μg/injection 1V270 was i.p. administered on days −1 or 0 followed by days 7, 10, and 14 where indicated. The numbers of lung nodules were counted on day 21. Each dot indicates an individual mouse and horizontal and vertical bars indicate means±SEM. *P<0.05, **P<0.01 Kruskal-Wallis test with Dunn's post hoc test comparing treatment groups against vehicle group. (D-G) BALB/c mice (n=10/group) were treated with 1V270 (200 μg/injection) on day-1 and 4T1 cells were inoculated on day 0. (D,E) Three weeks later, mLNs cells were stained for CD3 and CD8. Intracellular granzyme B (D) and IFNγ (E) were analyzed by flow cytometry. Data are representative of 2 independent experiments showing similar results. *P<0.05, by the Mann-Whitney U test comparing the 1V270 treatment groups against the vehicle treated group. (F) Histological analysis of lungs on day 21. Representative images of H&E staining and immunohistochemical staining for CD3 and CD45. Scale bar: 100 μm. Original magnification ×200. (G) Tumor-specific cytotoxicity was examined using 4T1 cells as target cells and BALB/3T3 cells as irrelevant target cells. […] The percent specific killing was calculated. Data were analyzed by two-way ANOVA using a Bonferroni post hoc test comparing treatment groups against vehicle group. *P<0.05. […]
To make the single cell suspensions, tumors were dissociated using the mouse tumor dissociation kit (MiltenyiBiotec, San Diego, Calif.) and the gentle MACSOcto Dissociator according to the manufacture's protocol. […] Total cell number was counted by the ViaCount assay (MilliporeSigma, Darmstadt, Germany). […]

CD8+ T cells [2] = assay: TCR repertoire analysis of CD8+ T cells from TILs and spleens; type: in vivo, BALB/c mice

CCCCCCCCC=CCCCCCCCC(=O)OCC(COP(=O)(O)OCCNC(=O)c1ccc(Cn2c(=O)[nH]c3c(N)nc(OCCOC)nc32)cc1)OC(=O)CCCCCCCC=CCCCCCCCC (stereo not shown) [1V270]
infiltration of CD45+CD3+ cells in the pulmonary tumor microenvironment (CD8+ T cells [1]; histology): higher infiltration | percentage of IFNγ positive CD8+ T cells (CD8+ T cells [1]; mLN, 1V270 200 μg day -1): Significantly higher percentages | percentage of granzyme B positive CD8+ T cells (CD8+ T cells [1]; mLN, 1V270 200 μg day -1): Significantly higher percentages | BUB overlap index between TILs and splenocytes (CD8+ T cells [2]; 1V270-treated tumor-exposed vs non-tumor exposed mice): significantly higher BUB indices | number of shared clones in TILs (CD8+ T cells [2]; 1V270 treated tumor-exposed group vs no-tumor exposed group): eight-fold higher | TCRα clonotypes shared by 3 or more individuals (CD8+ T cells [2]; non-tumor group): 5 | clonality of CD8+ T cells (CD8+ T cells [2]; secondarily challenged tumors): increased clonality of CD8^+ T cells | TCRα clonotypes shared by 3 or more individuals (CD8+ T cells [2]; tumor-exposed group): 31 | TCRβ clonotypes shared by 3 or more individuals (CD8+ T cells [2]; tumor-exposed group): 11 | frequency of shared clones (CD8+ T cells [2]; tumor-exposed vs non-tumor exposed mice): significantly higher in tumor-exposed mice than in non-tumor exposed mice

Reference: US20200087625A1, “METHODS FOR ISOLATING, EXPANDING AND ADMINISTERING CANCER SPECIFIC CD8+ T CELLS” (priority 2017, published 2020)
